For three molecules, MIC results are on record in ChEMBL document CHEMBL3596187, “Design and synthesis of membrane-targeting antibiotics: from peptides- to aminosugar-based antimicrobial cationic amphiphiles” (2014).

Converted amounts (≈) assume the structure as drawn.

A word on the MIC: it is the least concentration at which growth counts as inhibited.

Holding throughout (assay type): functional
Assay [1] concerns Staphylococcus. In words: Antimicrobial activity against Staphylococci.
Assay [2] deals with Pseudomonas aeruginosa. In words: Antimicrobial activity against Pseudomonas aeruginosa after 18 to 24 hrs by geometric microdilution method. A general note: In broth dilution the organism is exposed to a series of concentrations in liquid medium.
Assay [3] relates to Klebsiella pneumoniae. In words: Antimicrobial activity against Klebsiella pneumoniae after 18 to 24 hrs by geometric microdilution method.
The subject of assay [4] is Acinetobacter lwoffii. In words: Antimicrobial activity against Acinetobacter lwoffii after 18 to 24 hrs by geometric microdilution method.
In assay [5] the test system is Escherichia coli. In words: Antimicrobial activity against Escherichia coli after 18 to 24 hrs by geometric microdilution method.
Assay [6] relates to Porphyromonas circumdentaria. In words: Antimicrobial activity against protease-positive Porphyromonas circumdentaria by agar dilution method. On the technique in general: Agar dilution tests growth on a series of plates holding different concentrations.
The subject of assay [7] is Streptococcus mutans. In words: Antimicrobial activity against Streptococcus mutans by agar dilution method.
For assay [8], the system named is Porphyromonas gingivalis. In words: Antimicrobial activity against protease-positive Porphyromonas gingivalis by agar dilution method.
The subject of assay [9] is Porphyromonas cangingivalis. In words: Antimicrobial activity against protease-positive Porphyromonas cangingivalis by agar dilution method.

Regarding `CCN(CC)CCCCOc1cc2oc3cc(OCCCCN(CC)CC)c(OC)c(CC=C(C)C)c3c(=O)c2c(O)c1CC=C(C)C`, in assay [1], it took 0.095 µg/mL (≈ 0.143 µM) to inhibit growth (MIC).
In the case of `NC[C@H]1O[C@H](O[C@H]2[C@H](O)[C@@H](OCc3ccc4ccccc4c3)[C@H](N)C[C@@H]2N)[C@H](N)[C@@H](OCc2ccc3ccccc3c2)[C@@H]1OCc1ccc2ccccc2c1`, the minimal inhibitory concentration (MIC) in [2], in assay [3], in [4] and in [5] was 2 µg/mL (≈ 2.69 µM) each time.
On to `CCCCCCCCNCCC[C@@H](C)[C@H]1CC[C@H]2[C@@H]3[C@H](OCCCN)C[C@@H]4C[C@H](OCCCN)CC[C@]4(C)[C@H]3C[C@H](OCCCN)[C@]12C`, for which the MIC in assay [6] was determined as 1 µg/mL (≈ 1.48 µM); in assay [7], 1 µg/mL (≈ 1.48 µM); in assay [8] it was 2 µg/mL (≈ 2.95 µM); in assay [9], 2 µg/mL (≈ 2.95 µM).
